Measurements reported in US20210352895A1, “SYNERGISTIC PESTICIDAL COMPOSITIONS AND METHODS FOR DELIVERY OF ACTIVE INGREDIENTS” (0903608 B.C. Ltd., priority 2018, published 2021).
“And” between values parts separate entries of the source, which are not always exact repeats. Identical values can stand only once.

Key:
Botrytis cinerea = experiment: Synergistic Growth Inhibition Assay (MIC / FIC index, resazurin, 96-well) on Botrytis cinerea; format: cell-based
Description: (§1) In some embodiments, the synergistic action between the pesticidal active ingredient, and the at least one C4-C10 (or alternatively C11 or C12) saturated or unsaturated aliphatic acid components of the pesticidal compositions according to embodiments of the present disclosure was tested using a Synergistic Growth Inhibition Assay, which is derived from and related to a checkerboard assay as is known in the art for testing of combinations of antimicrobial agents. In the Synergistic Growth Inhibition Assay used in accordance with some embodiments of the present disclosure, multiple dilutions of combinations of pesticidal active ingredient and at least one C4-C10 saturated or unsaturated aliphatic acid agents are tested in individual cells for inhibitory activity against a target pest or pathogenic organism. In one such embodiment, the combinations of pesticidal active ingredient and C4-C10 (or alternatively C11 or C12) saturated or unsaturated aliphatic acid agents may preferably be tested in decreasing concentrations. In a further such embodiment, the combinations of pesticidal active ingredient and C4-C10 (or alternatively C11 or C12) saturated or unsaturated aliphatic acid agents may be tested in increasing concentrations. These multiple combinations of the pesticidal active ingredient and at least one C4-C10 (or alternatively C11 or C12) saturated or unsaturated aliphatic acid agents may be prepared in 96-well microtiter plates. In one such embodiment, the Synergistic Growth Inhibition Assay then comprises rows which each contain progressively decreasing concentrations of the pesticidal active ingredient and one or more C4-C10 (or alternatively C11 or C12) saturated or unsaturated aliphatic acid agents to test for the MIC of the agents in combination at which growth of the target pest or pathogen is inhibited. Thus, each well of the microtiter plate is a unique combination of the two agents, at which inhibitory efficacy of the combination against the target pest or pathogen can be determined.
(§2) In one embodiment according to the present disclosure, for each row of microtiter cells in the Synergistic Growth Inhibition Assay, the FIC index is calculated from the lowest concentration of the pesticidal active ingredient and one or more C4-C10 saturated or unsaturated aliphatic acid agents necessary to inhibit growth of a target pest or pathogen. The FIC of each component is derived by dividing the concentration of the agent present in that well of the microtiter plate by the minimal inhibitory concentration (MIC) needed of that agent alone to inhibit growth of the target pest or pathogen. The FIC index is then the sum of these values for both agents in that well of the microtiter plate. The FIC index is calculated for each row as follows:
(§3) FICindex=MICa/MICA+MICb/MICB
(§4) Fractional inhibitory concentration indices may then used as measure of synergy. […] When the FIC index is equal to 1, the combination is additive.
(§5) Then, serial dilutions of these initial compositions in successive wells in the row of the microtiter plate were used to assay the pesticidal composition under the same conditions to determine the concentration of the composition combining the two agents corresponding to the microtiter well in which growth inhibition of the target pest or organism ceases.
(§6) Similarly to as described above, Resazurin was used as an indicator of growth or inhibition of growth of Botrytis cinerea in the exemplary Synergistic Growth Inhibition Assay. In addition to the color change of the resazurin, an optical or visual examination of the microtiter well may also be made to additionally determine the presence of growth or inhibition of growth of the Botrytis cinerea.

[1] = Solubility / effective solubilized concentration in 10% DMSO/90% PDB by HPLC; conditions: DMSO stock diluted 10-fold in PDB; verified by HPLC
Description: This solution was diluted 10-fold in potato dextrose broth (PDB) to give a concentration of 0.05 mg/mL in 10% DMSO/90% PDB.

Fusarium oxysporum = experiment: Synergistic Growth Inhibition Assay (MIC / FIC index, resazurin, 96-well) on Fusarium oxysporum; format: cell-based; conditions: Compound A alone
Description: as §1, §2, §3, §4, §5
Resazurin dye (also known as Alamar blue dye) was used as an indicator to determine the presence of growth or inhibition of growth of Fusarium oxysporum in the wells of the 96 well microtiter plates used in the exemplary Synergistic Growth Inhibition Assay. In addition to the color change of the resazurin dye in the presence of growth of the Fusarium oxysporum, an optical or visual examination of the microtiter well may also be made to additionally determine the presence of growth or inhibition of growth of the Fusarium oxysporum.

Sclerotinia sclerotiorum = experiment: Synergistic Growth Inhibition Assay (MIC / FIC index, resazurin, 96-well) on Sclerotinia sclerotiorum; format: cell-based; conditions: Compound A alone
Description: as §1, §2, §3, §4, §5
as §6, with “Sclerotinia sclerotiorum” for “Botrytis cinerea”, “Sclerotinia sclerotiorum.” for “Botrytis cinerea.”

Trichoplusia ni [2] = experiment: In-vitro insecticidal efficacy of Pylon (chlorfenapyr) with unsaturated aliphatic acids in artificial diet, Colby synergy factor; format: in vivo, Trichoplusia ni (cabbage looper)
Description: A stock solution was prepared for each of trans-2-hexenoic acid and trans-3-hexenoic acid (both available from Sigma-Aldrich, St. Louis, Mo., USA), by dissolving each exemplary unsaturated aliphatic acid in 100% dimethylsulfoxide (DMSO) at a concentration of 20 mg/mL (20,000 ppm). A stock solution for the potassium salt of (2E,4E)-2,4-hexadienoic acid was prepared by dissolving the salt in water to form a 20 mg/mL (20,000 ppm) solution.
An artificial diet suitable for Trichoplusia ni (cabbage looper caterpillar) was prepared according to the modified McMorran artificial diet recipe known in the entomology field (containing agar, casein, potassium hydroxide, alphacel, Wesson's salt mix, sugar, toasted wheat germ, choline chloride, ascorbic acid, methyl paraben, aureomycin, linseed oil and vitamin solution).
The treated artificial diet was then used to fill each well of a 24-well treatment plate with approximately 0.5 mL of artificial diet, which was allowed to solidify at room temperature and stored overnight at approximately 4 C. […] Each experiment contained 3 replicates, and was repeated at least 3 times.
(§7) While for SF<1, antagonism is present and for SF=1, the efficacy of the compounds is merely additive.

Trichoplusia ni [3] = experiment: In-planta insecticidal efficacy of Pylon (chlorfenapyr) with unsaturated aliphatic acids on sprayed green cabbage plants, Colby synergy factor; format: in vivo, Trichoplusia ni (cabbage looper); conditions: 0.06 mg/mL aliphatic acid (salt)
Description: A stock solution for the potassium salt of (2E,4E)-2,4-hexadienoic acid was prepared by dissolving the salt in water to form a 20 mg/mL (20,000 ppm) solution. […] Each experiment was repeated at least 3 times.
as §7

[4] = aliphatic acid (salt) 0.05 mg/mL
[5] = aliphatic acid (salt) 0.30 mg/mL

In the case of `CO/C=C(/C(=O)OC)c1ccccc1Oc1cc(Oc2ccccc2C#N)ncn1` [Azoxystrobin, reference compound], the “MIC (A)” value (Botrytis cinerea; Compound A alone, 48 hours incubation) was 37.5 µg/mL and 75 µg/mL, the “MIC (A)” value (Botrytis cinerea; Compound A alone, Botrytis cinerea, incubation period of 2 days) was 150 µg/mL and the “MIC (A)” value (Botrytis cinerea; Compound A alone, Botrytis cinerea, incubation period of 48 hours) was 150 µg/mL. The “MIC (A)” value (Botrytis cinerea; Table 45, Compound A = azoxystrobin, alone or in combination with Compound B, 48 hours incubation) was 75 µg/mL, the “effective solubilized concentration of working stock solution” value [1] was 0.15 mg/mL and the “MIC (A)” value (Fusarium oxysporum; 48 hours incubation) was 75 µg/mL and 150 µg/mL. The “MIC (A)” value (Fusarium oxysporum; Fusarium oxysporum, 2-fold dilutions, incubation period of 48 hours) was 150 µg/mL, the “MIC (A)” value (Fusarium oxysporum; Fusarium oxysporum, incubation period of 48 hours) was 150 µg/mL and the “MIC (A)” value (Sclerotinia sclerotiorum; 7 days incubation) was 150 µg/mL and 75 µg/mL. For the same molecule, the “MIC (A)” value (Sclerotinia sclerotiorum; Sclerotinia sclerotiorum, 2-fold dilutions, incubation period of 7 days) was 150 µg/mL and the “MIC (A)” value (Sclerotinia sclerotiorum; Sclerotinia sclerotiorum, incubation period of 7 days) was 150 µg/mL.
For `CC=CC=CC(=O)[O-].[K+]` [2,4-hexenoic acid-Ksalt], the “72 hr Obs. Efficacy” value (Trichoplusia ni [2]; [4]) was 4%, the “72 hr Obs. Efficacy” value (Trichoplusia ni [2]; [5]) was 13% and the “90 hr Obs. Efficacy” value (Trichoplusia ni [2]; [4]) was 4%. For the same molecule, the “90 hr Obs. Efficacy” value (Trichoplusia ni [2]; [5]) was 13%, the “120 hr Obs. Efficacy” value (Trichoplusia ni [2]; [4]) was 4% and the “120 hr Obs. Efficacy” value (Trichoplusia ni [2]; [5]) was 4%.
For `CC=CC=CC(=O)[O-].[K+]` [2,4-hexadienoic acid, K-salt], the “Observed Efficacy (%)” value (Trichoplusia ni [3]; after 48 hours) was 13% and the “Observed Efficacy (%)” value (Trichoplusia ni [3]; after 72 hours) was 0%.
